Data: patent publication US5496808A (priority 1991, dated 1996)
Values after ≈ are worked out from the molar mass of the structure shown. Like-named read-outs stand apart in the source and are kept apart here.

Legend:
[1] = test system: LoVo (colon adenocarcinama); assay: cells; format: cell-based, human; settings: for IC50: Homo sapiens, read-out: Cytotoxicity IC50 LoVo
Excerpt: (§1) Colony assay: 4 hr treatment
(§2) ^(1) IC50 = concentration inhibiting 50% of colony formation

[2] = test system: LoVo/DX (colon adenocarcinoma resistant to Doxorubicin); assay: cells; settings: for IC50: Homo sapiens, 4 h, read-out: Cytotoxicity IC50 LoVo/DX
Excerpt: as §1, §2
^(2) R.I. = Resistance Index = (IC50 LoVo/DX)(IC50 LoVo)

[3] = test system: Ascitic P388 Leukemia; assay: Antitumor activity "in vivo" against ascitic P388 leukemia, sensitive to Doxorubicin; design: species or system murine
Procedure: ^(3) 10^6 cell/mouse were injected i.p. on day 0.
(§3) ^(4) Compounds were suspended in Tween 80 10% and injected i.p. one
(§4) day after tumor transplantation.
(§5) ^(5) Median survival time of treated mice/Median survival time of
(§6) ^(6) No. of toxic deaths/total No. of mice.

[4] = test system: Disseminated P388/DX Johnson Leukemia; assay: Antitumor activity "in vivo" against disseminated P388/DX Johnson leukemia, resistant to Doxorubicin; design: species or system murine
Procedure: ^(7) 10^5 cell/mouse were injected i.v. on day 0.
as §3, §4, §5, §6

[5] = 0.33 mg/kg i.p. one day after tumor transplantation
[6] = 0.5 mg/kg i.p. one day after tumor transplantation
[7] = 0.75 mg/kg i.p. one day after tumor transplantation
[8] = 1.9 mg/kg i.p. one day after tumor transplantation
[9] = 2.5 mg/kg i.p. one day after tumor transplantation
[10] = 10.0 mg/kg i.p. one day after tumor transplantation
[11] = 15.0 mg/kg i.p. one day after tumor transplantation
[12] = 22.0 mg/kg i.p. one day after tumor transplantation
[13] = 1.0 mg/kg i.p. one day after tumor transplantation
[14] = 1.4 mg/kg i.p. one day after tumor transplantation
[15] = 2.0 mg/kg i.p. one day after tumor transplantation
[16] = 2.8 mg/kg i.p. one day after tumor transplantation
[17] = 1.2 mg/kg i.p. one day after tumor transplantation
[18] = 1.6 mg/kg i.p. one day after tumor transplantation
[19] = 2.1 mg/kg i.p. one day after tumor transplantation
[20] = 3.7 mg/kg i.p. one day after tumor transplantation

## CC(=O)[C@]1(O)Cc2c(O)c3c(c(O)c2[C@@H](O[C@H]2C[C@H](N)[C@H](O)[C@H](C)O2)C1)C(=O)c1ccccc1C3=O [4-demethoxydaunorubicin]
[1]; 4 h
  IC50: 0.004 µg/mL (≈ 0.00804 µM)
[2]; LoVo/DX
  IC50: 0.048 µg/mL (≈ 0.0965 µM)
[2]; human, lovo/dx vs lovo, 240 min
  R.I. = Resistance Index (IC50 LoVo/DX)(IC50 LoVo): 12.0
[3]; [5]
  T/C (median survival time of treated mice/controls × 100): 142%
  TOX: 0/27
[3]; [6]
  T/C (median survival time of treated mice/controls × 100): 160%
  TOX: 0/28
[3]; [7]
  T/C (median survival time of treated mice/controls × 100): 163%
  TOX: 4/28
[4]; [8]
  T/C (median survival time of treated mice/controls × 100): 106%
  TOX: 0/10
[4]; [9]
  T/C (median survival time of treated mice/controls × 100): 89%
  TOX: 0/10

## COc1cccc2c1C(=O)c1c(O)c3c(c(O)c1C2=O)C[C@@](O)(C(=O)CO)C[C@@H]3O[C@H]1C[C@H](N)[C@H](O)[C@H](C)O1 [Doxorubicin, doxorubicin]
[1]; colony assay: 4 hr treatment
  IC50: 0.0825 µg/mL (≈ 0.152 µM)
[2]; LoVo/DX
  IC50: 4.98 µg/mL (≈ 9.15 µM)
[3]; [10]
  T/C (median survival time of treated mice/controls × 100): 299%
  TOX: 0/10
[3]; [11]
  T/C (median survival time of treated mice/controls × 100): 90%
  TOX: 3/6
[4]; 16.9 mg/kg i.p. one day after tumor transplantation
  TOX: 0/6
[4]; [12]
  T/C (median survival time of treated mice/controls × 100): 94%
  TOX: 3/6

## CC(=O)[C@]1(O)Cc2c(O)c3c(c(O)c2[C@@H](O[C@H]2C[C@H](N(CCCl)CCCl)[C@H](OS(C)(=O)=O)[C@H](C)O2)C1)C(=O)c1ccccc1C3=O [compound 1h, 4-demethoxy-4'-O-methansulfonyl-N,N-bis(2-chloroethyl)daunorubicin]
[1]; colony assay: 4 hr treatment
  Cytotoxicity IC50 LoVo: 0.0043 µg/mL
[2]; LoVo/DX versus LoVo, colony assay: 4 hr treatment
  R.I. = Resistance Index (IC50 LoVo/DX)(IC50 LoVo): 3.3
[2]; LoVo/DX, colony assay: 4 hr treatment
  Cytotoxicity IC50 LoVo/DX: 0.014 µg/mL
[2]; LoVo/DX, in comparison with 4-demethoxydaunorubicin (3b) and Doxorubicin (3c)
  activity on the doxorubicin-resistant cell line compared with 4-demethoxydaunorubicin and Doxorubicin: striking higher activity
[3]; [13]
  T/C (median survival time of treated mice/controls × 100): 184%
  TOX: 0/12
[3]; [14]
  T/C (median survival time of treated mice/controls × 100): 217%
  TOX: 0/6
[3]; [15]
  T/C (median survival time of treated mice/controls × 100): 233%
  TOX: 1/6
[3]; [16]
  T/C (median survival time of treated mice/controls × 100): 78%
  TOX: 6/6
[4]; [17]
  T/C (median survival time of treated mice/controls × 100): 133%
  TOX: 0/6
[4]; [18]
  T/C (median survival time of treated mice/controls × 100): 144%
  TOX: 0/6
[4]; [19]
  T/C (median survival time of treated mice/controls × 100): 185%
  TOX: 0/6
[4]; [16]
  T/C (median survival time of treated mice/controls × 100): 220%
  TOX: 0/6
[4]; [20]
  T/C (median survival time of treated mice/controls × 100): 250%
  TOX: 0/6
[4]; P388 resistant to Doxorubicin (Johnson)
  activity when tested on resistant Leukemia: high activity
